target: recombinant 15-PGDH protein (Homo sapiens (Human), UniProt P15428); assay: Inhibition of enzymatic activity of recombinant 15-PGDH in vitro; format: biochemical; details: read-out: Enzyme inhibition % ([…]), recombinant 15-PGDH, […] compound; read-out: Enzyme inhibition % (2.5 μM);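 further: activity of recombinant human 15-PGDH assayed in vitro using PGE2 as the substrate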
Sequence (P15428 whole entry): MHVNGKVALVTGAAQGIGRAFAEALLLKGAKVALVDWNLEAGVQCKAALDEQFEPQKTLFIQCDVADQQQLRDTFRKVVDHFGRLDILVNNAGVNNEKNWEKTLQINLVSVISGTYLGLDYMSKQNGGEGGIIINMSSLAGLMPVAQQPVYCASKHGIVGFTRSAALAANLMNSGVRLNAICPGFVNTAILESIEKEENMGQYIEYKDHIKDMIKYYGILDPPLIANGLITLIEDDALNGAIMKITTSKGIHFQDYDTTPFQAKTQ

First: COc1ccc(OC)c(N(CC(=O)Nc2cccnc2)C(C)=O)c1 [SW202952]
Second: COc1ccc(OC)c(N(CC(=O)Nc2cccnc2)S(=O)(=O)c2ccc(C(C)=O)cc2)c1 [SW202950]
The inhibition at […] of the first is lower: 29% for the first, 46.3% for the second.

Compared with COc1ccc(OC)c(N(CC(N)=O)S(=O)(=O)c2ccccc2)c1 [SW131635], CNC(=O)CN(c1cc(OC)ccc1OC)S(=O)(=O)c1ccccc1 [SW203682] is higher in inhibition at […]: 11.8% for the first, 15.7% for the second.

Compared with COc1ccc(OC)c(N(CC(=O)Nc2cncnc2)S(=O)(=O)c2ccccc2)c1 [SW203683], COc1ccc(OC)c(N(CC(=O)Nc2ccncc2)S(=O)(=O)c2ccccc2)c1 [SW202938] is higher in inhibition at […]: 23.4% for the first, 52.7% for the second.

Compared with COc1cccc(NC(=O)CN(c2cc(OC)ccc2OC)S(=O)(=O)c2ccccc2)c1 [SW202976], COc1ccc(OC)c(N(CC(=O)Nc2cccc(C)c2)S(=O)(=O)c2ccccc2)c1 [SW202969] is lower in inhibition at […]: 7.87% for the first, 0.91% for the second.

First: COc1ccc(OC)c(N(CC(=O)Nc2ccnc(C)c2)S(=O)(=O)c2ccccc2)c1 [SW202966]
Second: COc1ccc(OC)c(N(CC(=O)Nc2ccnc(F)c2)S(=O)(=O)c2ccccc2)c1 [SW208005]
The inhibition at […] of the first is higher: 44.7% for the first, 44.1% for the second.

First: COc1ccc(OC)c(N(CC(=O)Nc2cccnc2)S(=O)(=O)c2c(C)cc(C)cc2C)c1 [SW202953]
Second: COc1ccc(OC)c(N(CC(=O)Nc2cccnc2)S(=O)(=O)c2cccc(C)c2)c1 [SW203684]
The inhibition at […] of the first is lower: 8.81% for the first, 36.4% for the second.

First: COc1ccc(OC)c(N(CC(=O)Nc2ccncc2F)S(=O)(=O)c2ccccc2)c1 [SW208004]
Second: COc1ccc(OC)c(N(CC(=O)Nc2ccccc2Cl)S(=O)(=O)c2ccccc2)c1 [SW202987]
The inhibition at […] of the first is higher: 52.3% for the first, 4.61% for the second.

First: COc1ccc(OC)c(N(CC(=O)Nc2ccccn2)S(=O)(=O)c2ccccc2)c1 [SW202941]
Second: COc1ccc(OC)c(N(CC(=O)Nc2cccnn2)S(=O)(=O)c2ccccc2)c1 [SW203680]
The inhibition at […] of the first is lower: 10.9% for the first, 34.8% for the second.

First: CCCOC(=O)CN(c1cc(OC)ccc1OC)[S@SP3](=O)(=O)c1ccccc1 [SW202986]
Second: CCOC(=O)CN(c1cc(OC)ccc1OC)S(=O)(=O)c1ccccc1 [SW202951]
The inhibition at […] of the first is higher: -2.22% for the first, -15.4% for the second.

Compared with COc1ccc(OC)c(N(CC(=O)OC(C)(C)C)S(=O)(=O)c2ccccc2)c1 [SW202979], COc1ccc(OC)c(N(CC(=O)OC(C)C)S(=O)(=O)c2ccccc2)c1 [SW202971] is lower in inhibition at […]: 3.92% for the first, -0.72% for the second.

First: COc1ccc(OC)c(N(CC(=O)Nc2cccnc2)S(=O)(=O)c2ccccc2C(F)(F)F)c1 [SW202944]
Second: COc1ccc(OC)c(N(CC(=O)Nc2cccnc2)S(=O)(=O)c2ccccc2OC(F)(F)F)c1 [SW202954]
The inhibition at […] of the first is higher: 28.3% for the first, 6.02% for the second.

First: COc1ccc(OC)c(N(CC(=O)N2CCCC2)S(=O)(=O)c2ccccc2)c1 [SW208001]
Second: COc1ccc(OC)c(N(CC(=O)N2CCCCC2)S(=O)(=O)c2ccccc2)c1 [SW131633]
The inhibition at […] of the first is lower: 21.8% for the first, 23.1% for the second.

Going from COc1ccc(OC)c(N(CC(=O)Nc2ccccc2OC)S(=O)(=O)c2ccccc2)c1 [SW202965] to COc1ccc(OC)c(N(CC(=O)N(C)c2cccnc2)S(=O)(=O)c2ccccc2)c1 [SW203686], the inhibition at […] rises from 11.3% to 14.9%.

Compared with COc1ccc(OC)c(N(CC(=O)N2CCCC2=O)S(=O)(=O)c2ccccc2)c1 [SW208002], COc1ccc(OC)c(N(CC(=O)OC2CCCCC2)S(=O)(=O)c2ccccc2)c1 [SW202978] is lower in inhibition at […]: 34.7% for the first, 4.14% for the second.

COc1ccc(S(=O)(=O)N(CC(=O)Nc2ccncc2)c2cc(OC)ccc2OC)cc1 [SW202989] showed an inhibition at […] of 81.3%.

same assay, conditions: read-out: Enzyme inhibition % ([…]), recombinant 15-PGDH, […] compound; read-out: Enzyme inhibition % (7.5 μM)

Compared with COc1ccc(OC)c(N(CC(=O)Nc2cccnc2)C(C)=O)c1 [SW202952], COc1ccc(OC)c(N(CC(=O)Nc2cccnc2)S(=O)(=O)c2ccc(C(C)=O)cc2)c1 [SW202950] is lower in inhibition at […]: 57% for the first, 56.4% for the second.

Going from COc1ccc(OC)c(N(CC(N)=O)S(=O)(=O)c2ccccc2)c1 [SW131635] to CNC(=O)CN(c1cc(OC)ccc1OC)S(=O)(=O)c1ccccc1 [SW203682], the inhibition at […] rises from 35.4% to 36.2%.

Going from COc1ccc(OC)c(N(CC(=O)Nc2cncnc2)S(=O)(=O)c2ccccc2)c1 [SW203683] to COc1ccc(OC)c(N(CC(=O)Nc2ccncc2)S(=O)(=O)c2ccccc2)c1 [SW202938], the inhibition at […] rises from 57.1% to 75.6%.

Compared with COc1cccc(NC(=O)CN(c2cc(OC)ccc2OC)S(=O)(=O)c2ccccc2)c1 [SW202976], COc1ccc(OC)c(N(CC(=O)Nc2cccc(C)c2)S(=O)(=O)c2ccccc2)c1 [SW202969] is lower in inhibition at […]: 29.8% for the first, 9.43% for the second.

Compared with COc1ccc(OC)c(N(CC(=O)Nc2ccnc(C)c2)S(=O)(=O)c2ccccc2)c1 [SW202966], COc1ccc(OC)c(N(CC(=O)Nc2ccnc(F)c2)S(=O)(=O)c2ccccc2)c1 [SW208005] is lower in inhibition at […]: 61.4% for the first, 52% for the second.

Compared with COc1ccc(OC)c(N(CC(=O)Nc2cccnc2)S(=O)(=O)c2c(C)cc(C)cc2C)c1 [SW202953], COc1ccc(OC)c(N(CC(=O)Nc2cccnc2)S(=O)(=O)c2cccc(C)c2)c1 [SW203684] is higher in inhibition at […]: 15.1% for the first, 64.7% for the second.

First: COc1ccc(OC)c(N(CC(=O)Nc2ccncc2F)S(=O)(=O)c2ccccc2)c1 [SW208004]
Second: COc1ccc(OC)c(N(CC(=O)Nc2ccccc2Cl)S(=O)(=O)c2ccccc2)c1 [SW202987]
The inhibition at […] of the first is higher: 57% for the first, 6.13% for the second.

First: COc1ccc(OC)c(N(CC(=O)Nc2ccccn2)S(=O)(=O)c2ccccc2)c1 [SW202941]
Second: COc1ccc(OC)c(N(CC(=O)Nc2cccnn2)S(=O)(=O)c2ccccc2)c1 [SW203680]
The inhibition at […] of the first is lower: 35.6% for the first, 62.1% for the second.

Going from CCCOC(=O)CN(c1cc(OC)ccc1OC)[S@SP3](=O)(=O)c1ccccc1 [SW202986] to CCOC(=O)CN(c1cc(OC)ccc1OC)S(=O)(=O)c1ccccc1 [SW202951], the inhibition at […] falls from 2.58% to -8.59%.

First: COc1ccc(OC)c(N(CC(=O)OC(C)(C)C)S(=O)(=O)c2ccccc2)c1 [SW202979]
Second: COc1ccc(OC)c(N(CC(=O)OC(C)C)S(=O)(=O)c2ccccc2)c1 [SW202971]
The inhibition at […] of the first is higher: 6.24% for the first, -13.2% for the second.

Compared with COc1ccc(OC)c(N(CC(=O)Nc2cccnc2)S(=O)(=O)c2ccccc2C(F)(F)F)c1 [SW202944], COc1ccc(OC)c(N(CC(=O)Nc2cccnc2)S(=O)(=O)c2ccccc2OC(F)(F)F)c1 [SW202954] is lower in inhibition at […]: 57.8% for the first, 9.88% for the second.

Going from COc1ccc(OC)c(N(CC(=O)N2CCCC2)S(=O)(=O)c2ccccc2)c1 [SW208001] to COc1ccc(OC)c(N(CC(=O)N2CCCCC2)S(=O)(=O)c2ccccc2)c1 [SW131633], the inhibition at […] rises from 27.7% to 35.2%.

Compared with COc1ccc(OC)c(N(CC(=O)Nc2ccccc2OC)S(=O)(=O)c2ccccc2)c1 [SW202965], COc1ccc(OC)c(N(CC(=O)N(C)c2cccnc2)S(=O)(=O)c2ccccc2)c1 [SW203686] is higher in inhibition at […]: 33.1% for the first, 34.2% for the second.

Compared with COc1ccc(OC)c(N(CC(=O)N2CCCC2=O)S(=O)(=O)c2ccccc2)c1 [SW208002], COc1ccc(OC)c(N(CC(=O)OC2CCCCC2)S(=O)(=O)c2ccccc2)c1 [SW202978] is lower in inhibition at […]: 59.2% for the first, 3.12% for the second.

COc1ccc(S(=O)(=O)N(CC(=O)Nc2ccncc2)c2cc(OC)ccc2OC)cc1 [SW202989] was tested, and the inhibition at […] was 89.9%.

From US10301320B2, “Compositions and methods of modulating 15-PGDH activity” (CASE WESTERN RESERVE UNIVERSITY, priority 2012, dated 2019)
